This passage reports GI50 and TGI results from PubChem BioAssay (NCI).

Test systems include SF-268 CNS; A498 renal; HCT-15 colon; SN12C renal; HOP-92 NSCLC; OVCAR-5 ovarian; HOP-62 NSCLC; SK-OV-3 ovarian; HL-60(TB) leukemia; SF-539 CNS.
What all share (experiment): NCI tumour cell line growth inhibition, 48 h

Molecules are shown by their SMILES.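 A five-concentration, 48-hour dose response in 96-well plates underlies each endpoint, interpolated linearly between surrounding concentrations. The concentration for 50% growth inhibition is given as GI50. TGI: total growth inhibition.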

For `COc1cc2c(/C=C3/C(=O)Nc4c3ccc3ccccc43)c(Cl)[nH]c2cc1C`, the GI50 is 0.0218 µM with SF-268 CNS; > 50 µM in the test on A498 renal; 0.0427 µM with HCT-15 colon; 0.071 µM in the test on SN12C renal; 10.2 µM with OVCAR-5 ovarian; 0.0144 µM in the test on HOP-62 NSCLC. Also, the GI50 was 0.0364 µM with SK-OV-3 ovarian, 0.0115 µM in the test on HL-60(TB) leukemia and 0.0106 µM in the test with SF-539 CNS. The TGI in the test with SF-268 CNS was > 14.6 µM; with A498 renal it was > 50 µM; in the test on HCT-15 colon, 0.143 µM; in the test on SN12C renal, > 19.6 µM; in the test with HOP-92 NSCLC it was > 31.1 µM; in the test on OVCAR-5 ovarian, > 50 µM. For the same compound, the TGI in the test on HOP-62 NSCLC is 4.08 µM; in the test with SK-OV-3 ovarian, > 50 µM; in the test with HL-60(TB) leukemia it was 0.661 µM; in the test on SF-539 CNS, 0.119 µM.
Regarding `COc1ccc(/C=C/C(=O)c2ccc(NC(=O)CSc3nnc(-c4cc(OC)c(OC)c(OC)c4)o3)cc2)cc1`, the GI50 was 1.79 µM in the test on SF-268 CNS; 11 µM with A498 renal; 1.63 µM in the test on HCT-15 colon; 1.83 µM in the test with SN12C renal; 1.93 µM in the test with HOP-92 NSCLC; 1.72 µM in the test on OVCAR-5 ovarian. For the same compound, the GI50 in the test on HOP-62 NSCLC was 2.13 µM; in the test on SK-OV-3 ovarian it was 2.42 µM; in the test with SF-539 CNS, 1.64 µM. Also, the TGI is 3.96 µM with SF-268 CNS; 23.6 µM with A498 renal; 3.22 µM in the test with HCT-15 colon; 3.57 µM in the test with SN12C renal; 4.23 µM with HOP-92 NSCLC; 3.3 µM in the test on OVCAR-5 ovarian. The TGI in the test with HOP-62 NSCLC is 4.53 µM; with SK-OV-3 ovarian, 5.68 µM; with SF-539 CNS, 3.03 µM.
As to `COC(=O)/C(Br)=C/c1c[nH]c2ccc(Br)cc12`, the GI50 with SF-268 CNS was 15.6 µM; in the test on A498 renal, 7.98 µM; in the test on HCT-15 colon it was 6.26 µM; in the test with SN12C renal, 18.4 µM; with HOP-92 NSCLC it was 2.13 µM; in the test with OVCAR-5 ovarian it was 13.6 µM. Besides, the GI50 in the test on HOP-62 NSCLC is 17.6 µM; in the test with SK-OV-3 ovarian it was 17.7 µM; with HL-60(TB) leukemia it was 61.3 µM; in the test with SF-539 CNS, 14.9 µM. Besides, the TGI with SF-268 CNS was 60.3 µM; with A498 renal, 20.9 µM; in the test with HCT-15 colon it was 21.4 µM; in the test on SN12C renal, 43.3 µM; in the test on HOP-92 NSCLC it was 15.7 µM; with OVCAR-5 ovarian, 31.3 µM. Besides, the TGI is 51.9 µM in the test with HOP-62 NSCLC, 53.9 µM with SK-OV-3 ovarian, > 100 µM in the test on HL-60(TB) leukemia and 32.9 µM in the test with SF-539 CNS.
As to `O=C(Nc1cccc(-n2cc(-c3ccncc3)c(-c3ccc(O)c(Cl)c3)n2)c1)Nc1ccc(Cl)c(C(F)(F)F)c1`, the GI50 with SF-268 CNS was 2.46 µM; with A498 renal, 2.47 µM; with HCT-15 colon it was 2.58 µM; with SN12C renal, 2.99 µM; in the test on HOP-92 NSCLC it was 0.455 µM; in the test on OVCAR-5 ovarian, 3.02 µM. Further, the GI50 in the test with HOP-62 NSCLC is 3.15 µM; in the test on SK-OV-3 ovarian it was 3.14 µM; with HL-60(TB) leukemia it was 2.55 µM; with SF-539 CNS, 1.76 µM. Also, the TGI in the test on SF-268 CNS came out at 8.1 µM; with A498 renal, 7.75 µM; with HCT-15 colon it was 10.9 µM; in the test with SN12C renal it was 13.4 µM; in the test on HOP-92 NSCLC, 2.93 µM; in the test on OVCAR-5 ovarian it was 13.9 µM. Further, the TGI in the test with HOP-62 NSCLC is 9.77 µM; in the test on SK-OV-3 ovarian, 9.82 µM; with HL-60(TB) leukemia it was 6.38 µM; in the test on SF-539 CNS it was 5.99 µM.
Consider `N=C1N=Nc2nc(C3(c4nc5n(c4O)C(=N)N=N5)Cc4ccccc4C3=O)c(O)n21` (configuration not stated), for which the TGI in the test on SF-268 CNS was > 100 µM; with A498 renal, > 43.9 µM; in the test with HCT-15 colon, > 100 µM; in the test with SN12C renal, > 100 µM; with HOP-92 NSCLC it was > 100 µM; with OVCAR-5 ovarian, > 100 µM. Further, the TGI in the test with HOP-62 NSCLC, in the test with SK-OV-3 ovarian, in the test on HL-60(TB) leukemia and in the test on SF-539 CNS was > 100 µM each time.
With `Cc1cc(Cl)ccc1Nc1nc(C(F)(F)F)ccc1C(=O)N/N=C/c1ccc(F)cc1`, the GI50 in the test with SF-268 CNS was 1.14 µM; in the test with A498 renal it was 1.48 µM; in the test on HCT-15 colon, 0.621 µM; with SN12C renal it was 2.56 µM; in the test with HOP-92 NSCLC, 1.75 µM; in the test with OVCAR-5 ovarian, 2.45 µM. In addition, the GI50 with HOP-62 NSCLC is 1.68 µM; in the test with SK-OV-3 ovarian, 1.34 µM; in the test on HL-60(TB) leukemia, 1.77 µM; in the test on SF-539 CNS, 1.96 µM. Besides, the TGI in the test on SF-268 CNS was determined as 5.64 µM; in the test with A498 renal, 5.92 µM; in the test on HCT-15 colon, 12.4 µM; with SN12C renal it was 11.4 µM; in the test on HOP-92 NSCLC, 6.14 µM; in the test with OVCAR-5 ovarian, 15.1 µM. Besides, the TGI with HOP-62 NSCLC worked out at 6.65 µM; with SK-OV-3 ovarian, 6.58 µM; with HL-60(TB) leukemia it was 5.01 µM; in the test on SF-539 CNS, 5.67 µM.
For the compound `NC(CCCNCc1ccccc1O)C(=O)O` (configuration not stated), the TGI in the test with SF-268 CNS, in the test on A498 renal, with HCT-15 colon, in the test on SN12C renal, with HOP-92 NSCLC and with OVCAR-5 ovarian was > 100 µM each time. Also, the TGI with HOP-62 NSCLC, in the test with SK-OV-3 ovarian, in the test on HL-60(TB) leukemia and in the test on SF-539 CNS was > 100 µM throughout.
For `Nc1nn(C(=O)Nc2ccc(Cc3ccccc3)cc2)c2ccccc12`, the GI50 with SF-268 CNS is 4.66 µM; in the test with A498 renal, 16.7 µM; in the test with HCT-15 colon, 1.08 µM; in the test on SN12C renal, 12.9 µM; with HOP-92 NSCLC, 14.2 µM; in the test on OVCAR-5 ovarian it was 31.3 µM. The GI50 is 13.7 µM in the test with HOP-62 NSCLC, 36.9 µM in the test on SK-OV-3 ovarian, 0.466 µM with HL-60(TB) leukemia and 0.495 µM with SF-539 CNS. Besides, the TGI in the test with SF-268 CNS was 32.3 µM; in the test on A498 renal it was 31.5 µM; in the test with HCT-15 colon it was > 100 µM; in the test on SN12C renal, 28 µM; with HOP-92 NSCLC it was 42.6 µM; in the test with OVCAR-5 ovarian, > 100 µM. Also, the TGI in the test on HOP-62 NSCLC is 46.5 µM; with SK-OV-3 ovarian, > 100 µM; with HL-60(TB) leukemia, 15.2 µM; in the test on SF-539 CNS it was 5.36 µM.
